Structures can show the parent of a compound that is named as a salt.
Assays:
5-Lipoxygenase = target: T1, 5-Lipoxygenase (Homo sapiens, UniProt P09917); assay: Inhibition of 5-Lipoxygenase in Human Whole Blood (LTB4, calcium ionophore A23187); assay type: cell-based
T1 construct: from tissue; host or cells: whole blood of male human donors (endogenous enzyme of the leukocytes)
T1 sequence (P09917 1-674): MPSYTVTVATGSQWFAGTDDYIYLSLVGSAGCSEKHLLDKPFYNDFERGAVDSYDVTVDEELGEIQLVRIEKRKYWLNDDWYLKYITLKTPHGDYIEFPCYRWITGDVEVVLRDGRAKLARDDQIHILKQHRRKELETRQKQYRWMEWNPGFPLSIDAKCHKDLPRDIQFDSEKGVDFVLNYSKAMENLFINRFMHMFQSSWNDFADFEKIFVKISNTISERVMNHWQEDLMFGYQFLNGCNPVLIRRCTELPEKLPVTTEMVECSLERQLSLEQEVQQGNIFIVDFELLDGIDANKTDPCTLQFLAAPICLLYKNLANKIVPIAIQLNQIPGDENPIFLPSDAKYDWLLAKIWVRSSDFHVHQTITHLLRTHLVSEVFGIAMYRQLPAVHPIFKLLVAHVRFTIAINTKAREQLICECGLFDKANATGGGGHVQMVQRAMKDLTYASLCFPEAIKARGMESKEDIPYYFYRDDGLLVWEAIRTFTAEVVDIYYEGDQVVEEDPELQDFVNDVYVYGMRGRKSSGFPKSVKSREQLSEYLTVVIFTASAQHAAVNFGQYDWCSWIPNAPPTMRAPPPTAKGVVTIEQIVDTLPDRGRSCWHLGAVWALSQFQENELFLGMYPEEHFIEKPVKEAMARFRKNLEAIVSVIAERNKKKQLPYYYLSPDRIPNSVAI
Procedure: 1. Inhibition of 5-Lipoxygenase in Human Whole Blood
Blood is obtained in 50-100 ml quantities from male donors. White blood cell counts and differentials are made. Two ml of blood are placed in a 15 ml polypropylene test tube. Test compounds are solubilized in dimethylsulfoxide and diluted in 1:10 in 10% bovine serum albumin in phosphate buffered saline, pH 7.4 resulting in a final dimethylsulfoxide concentration of 0.1% in the blood. Then, solutions of test compounds are added to the blood in a shaking water bath at 37° C. for 10 minutes prior to the addition of 30 μM calcium ionophore (A23187, Sigma). After ionophore administration, whole blood samples are mixed and incubated for 20 minutes at 37° C. in a shaking water bath. Incubation is terminated by placing samples in an ice bath and immediately adding ethylene glycol-bis-(β-aminoethyl ether)-N, N,N',N'-tetraacetic acid (10 mM). Samples are mixed and centrifuged at 1200× g for 15 minutes at 4° C. Preparation of samples for evaluation by RIA or ELISA is carried out by the following protocol. Plasma is removed from sample tubes, placed in 15 ml polypropylene test tubes containing 8 ml methanol, and then vortexed to precipitate protein. Samples are stored at -70° C. overnight. The next day, samples are centrifuged at 200× g for 15 minutes at 4° C. to pellet the precipitate. Samples are dried in a Savant SpeedVac Concentrator, Model SVC 200H, reconstituted to original volume with ice cold RIA or ELISA buffer, and stored at -70° C. until assayed. The assay for eicosanoids (LTB4, T×B2, and PGE2) is performed as described by the manufacturer of the ^3 H!-RIA kit or ELISA kit (LTB4 -Amersham, T×B2 and PGE2 -Caymen Chemical).
The total eicosanoid level in 2 ml of blood is calculated and reported as ng/10^6 neutrophils. Significance is determined by a one-way analysis of variance with least significant difference (LSD) comparisons to control (p≤0.05) and IC50 's (μM) are determined by regression analysis (Finney, 1978). Drug effects are expressed as percent change from control values.

[1] = tested on: LT-dependent bronchoconstriction; assay: Inhibition of Bronchoconstriction in Guinea Pigs Induced by Exogenously Administered Antigen (ovalbumin); assay type: in vivo, Male guinea pigs; conditions: Cavia porcellus, iv, 5 min; 10 mg/kg
Procedure: 4. Inhibition of Brochoconstriction in Guinea Pigs Induced by Exogenously Administered Antigen
Male guinea pigs (Charles River, Wilmington, Mass.) were sensitized 3-4 weeks prior to antigen challenge by administration of 2 i.m. injections of ovalbumin, 1 into each hind limb (35 mg total). Sensitized animals (500-600 g) were fasted overnight prior to experimentation. Conscious animals were then dosed p.o. with drug or vehicle alone (0.5% Tween 80 in H2 O) at the indicated times prior to antigen challenge, or anesthetized animals were dosed i.v. with drug or vehicle alone (DMSO) 5 min prior to antigen challenge. Animals were anesthetized by urethane (2.8 g/kg i.p.). A carotid artery and jugular vein were cannulated to allow for the monitoring of blood pressure and the administration of drugs, respectively. The trachea was then cannulated and connected to a Harvard Apparatus rodent ventilator (S. Natick, Mass). Spontaneous respiration was abolished by the administration of succinylcholine (2.5 mg/kg i.v.). The animals were then ventilated with room air at a rate of 65 breaths per min. Airway inflation pressure was measured using a Statham pressure transducer (Gould Instruments, Cleveland, Ohio) connected to the tracheal cannula via a side-arm and recorded on a Grass Instruments recorder (Quincy, Mass). The tidal volume (approximately 10 cc/kg) was adjusted to give a baseline inflation pressure of 8-10 cm H2 O at end inspiration. Animals were then allowed 20 min to stabilize.
Following the stabilization period, animals were given i.v. injections of pyrilamine (5 mg/kg), propranolol (0.1 mg/kg) and indomethacin (10 mg/kg) at 15, 10 and 5 min, respectively, prior to antigen challenge. This pretreatment results in an LT-dependent bronchoconstriction following antigen challenge, which was accomplished by i.v. administration of ovalbumin (10 mg/kg). Only one bronchoconstriction per animal was induced. End-inspiratory inflation pressure (in cm H2 O over baseline) was measured at 5 min post-antigen challenge. A mean value and standard error for the % inhibition of control bronchoconstriction in each drug-treated group was then calculated.

Lipoxygenase = assay: Ex-Vivo Measurement of Lipoxygenase Inhibition in Orally Dosed Rats (LTB4 in A23187-stimulated blood); design: species or system Male Sprague Dawley rats; conditions: 10 mg/kg, p.o.; pretreatment period 6 hr
Procedure: 2. Ex-Vivo Measurement of Lipoxygenase Inhibition in Orally Dosed Rats
After an interval of 3 or 6 hours, the rats were anesthetized with metofane (n=4/group) and blood collected in heparinized tubes. White blood cell counts and differentials were made. One ml of blood from each animal was placed in a 5 ml plastic tube in a shaker bath at 37° C. A23187 at a final concentration of 10 μM was added to the blood and the blood vortexed and incubated for 15 min at 37° C. with gentle shaking. Incubation was terminated by vortexing sample and centrifuging immediately at 1200× G for 15 min at 4° C. The plasma was transferred to 15 ml plastic tubes each containing 8 ml of methanol to precipitate protein followed by vortexing. The samples were stored at -70° C. overnight and the next day the samples were centrifuged at 800× G for 15 min to pellet the precipitate. The samples were dried in a Savant SpeedVac Concentrator Model SVC 200H and reconstituted to the original volume with cold RIA or ELISA buffer. The reconstituted samples were stored at -70° C. until assayed. The assay for LTB4 was performed according to the directions of the ^3 H!RIA kit or ELISA kit (Seragen). The total metabolite level in 1 ml of blood is calculated and reported as ng/10^6 neutrophils. Significance is determined by a one-way analysis of variance with LSD comparisons to control (p≤0.05).

| SMILES | inhibition at 1 µM (5-Lipoxygenase) [%] | inhibition in vivo at 10 mg/kg [1] [%] | inhibition at 10 µM (5-Lipoxygenase; 10 μM) [%] | other results |
| --- | --- | --- | --- | --- |
| Cc1oc(-c2ccc(OCC(F)(F)F)cc2)nc1COc1ccc(CN(O)C(N)=O)cc1 [Example 7, 1-Hydroxy-1-4-5-methyl-2-(4-trifluoroethoxy-phenyl)-oxazol-4-ylmethoxy!-benzyl!-urea] | 74 | 24 |  |  |
| Cc1oc(-c2ccccc2)nc1COc1ccc(C(C)N(O)C(N)=O)cc1 (stereo not shown) [Example 8, 1-Hydroxy-1-1- -4(5-methyl-2-phenyl-oxazol-4-ylmethoxy)-phenyl!-ethyl!-urea] |  |  | 57 |  |
| NC(=O)N(O)Cc1ccc(OCc2coc(-c3ccc(C(F)(F)F)cc3)n2)cc1 [Example 11, 1-Hydroxy-1-4-2-(4-trifluoromethyl-phenyl)-oxazol-4-ylmethoxy!-benzyl!-urea] | 32 |  |  | % Inhibition of LTB4 (Lipoxygenase): 68% |
| NC(=O)N(O)Cc1ccc(OCc2csc(-c3ccc(C(F)(F)F)cc3)n2)cc1 [Example 12, 1-Hydroxy-1-4-2-(4-trifluoromethyl-phenyl)-thiazol-4-yl-methoxy!-benzyl!urea] | 56 | 30 |  |  |
| O=C(Nc1ccc(F)cc1)N(O)Cc1ccc(OCc2csc(-c3ccc(C(F)(F)F)cc3)n2)cc1 [Example 13, 3-(4-Fluoro-phenyl)-1-hydroxy-1-4-2-(4-trifluoromethyl-phenyl)-thiazol-4-ylmethoxy!-benzyl!-urea] | 38 |  |  |  |
| NC(=S)N(O)Cc1ccc(OCc2csc(-c3ccc(Cl)cc3)n2)cc1 [Example 15, 1-Hydroxy-1-4-2-(4-chloro-phenyl)-thiazol-4-ylmethoxy!-benzyl!-thiourea] | 57 | 21 |  |  |
| CCCCCCNC(=O)N(O)Cc1ccc(OCc2csc(-c3ccc(Cl)cc3)n2)cc1 [Example 16, 1-4-2-(4-chloro-phenyl)-thiazol-4-ylmethoxy!-benzyl!-3-hexyl-1-hydroxy-urea] |  |  | 36 |  |
| COc1ccc(-c2nc(COc3ccc(CN(O)C(N)=O)cc3)cs2)cc1 [Example 17, 1-Hydroxy-1-4-2-(4-methoxy-phenyl)-thiazol-4-ylmethoxy!-benzyl!-urea] | 56 | 50 |  | % Inhibition of LTB4 (Lipoxygenase): 69% |
| Cc1oc(-c2ccccc2)nc1COc1ccc(C(O)CN(O)C(N)=O)cc1 (stereo not shown) [Example 18, 1-Hydroxy-1-2-hydroxy-2-4-(5-methyl-2-phenyl-oxazol-4-ylmethoxy)-phenyl!-ethyl!-urea] |  |  | 86 |  |
| Cc1oc(-c2ccc(C(F)(F)F)cc2)nc1COc1ccc(CN(O)C(=O)NN)cc1 [Example 19, 4-Hydroxy-4-4-5-methyl-2-(4-trifluoromethyl-phenyl)-oxazol-4-ylmethoxy!-benzyl!-semicarbazide] |  |  | 50 |  |
| CC(C)=NNC(=O)N(O)Cc1ccc(OCc2nc(-c3ccc(C(F)(F)F)cc3)oc2C)cc1 [Example 20, 1-Isopropylidine-4-hydroxy-4-4-5-methyl-2-(4-trifluoromethylphenyl)oxazol-4-ylmethoxy!-benzyl!-semicarbazone] |  |  | 78 |  |
| NNC(=O)N(O)Cc1ccc(OCc2csc(-c3ccccc3)n2)cc1 [Example 21, 4-Hydroxy-4-4-(2-phenyl-thiazol-4-ylmethoxy)-benzyl!-semicarbazide] |  |  | 94 |  |
| NNC(=O)N(O)Cc1ccc(OCc2csc(-c3ccccc3)n2)cc1 [Example 22, 4-Hydroxy-4-4-(2-phenyl-thiazol-4-ylmethoxy)-benzyl!-semicarbazide hydrochloride] |  |  |  | % Inhibition of LTB4 (5-Lipoxygenase; 10 μM, hydrochloride): 80% |
